The source of these data is patent US20220112515A1, “Method for Producing Virus-Infected Cell Line and Animal Model” (INDUSTRY-ACADEMIC COOPERATION FOUNDATION, YONSEI UNIVERSITY, priority 2018, published 2022).

Structures are written as SMILES.

In assay [1] the test system is A549 cell line. As to the kind of experiment: HCV infection of A549 cell line with tCDCA-mixed HCV. It counts as cell-based, human.
Assay [2] concerns RAG cell line. The assay can be described thus: HBV infection of RAG cell line with tCDCA-mixed HBV. As to conditions: HBV mixed with 100 μmol/L tCDCA. The format is cell-based, mouse. As for the experimental part:
(§1) In addition, […] was performed using an anti-HBcAg antibody, to measure a level of HBcAg present. Specifically, 100 μl/well of anti-HBcAg antibody (10E11) (cat no. MA1-7608; Thermo Fisher, USA) was added to a micro ELISA plate, and the reaction was allowed to proceed at 4° C. overnight. Then, 200 μl/well of 1× ELISA/ELISPOT Diluent (Invitrogen, USA) was additionally added thereto, and the reaction was allowed to proceed for 1 hour. Each of the HBV-infected cell lines produced was dispensed into each well, in which the reaction had been completed, and the reaction was allowed to proceed for 2 hours. Then, the anti-HBcAg antibody (10E11) diluted in a ratio of 1:30 with 100 μl of 1× ELISA/ELISPOT Diluent was added to the plate, and the reaction was allowed to proceed for 1 hour. Then, the additional reaction with 100 μl of HRP-conjugated anti-rabbit IgG was allowed to proceed for 30 minutes. Here, as a positive control, PLC/PRF5 cell line (human liver-derived cell line that releases HBV surface antigen) was used, and levels of HBsAg and HBcAg present therein were measured.

Assay [3] relates to H4-II-E cell line. The assay can be described thus: HBV infection of H4-II-E cell line with tCDCA-mixed HBV. As to conditions: HBV mixed with 100 μmol/L tCDCA. It counts as cell-based, rat. As for the experimental part: as §1
For assay [4], the system named is A498 cell line. The assay can be described thus: HCV infection of A498 cell line with tCDCA-mixed HCV. The format is cell-based, human.
Assay [5] relates to Huh-7 cell line. As to the kind of experiment: HCV infection of Huh-7 cell line with tCDCA-mixed HCV. The format is cell-based, human.
Procedure: (§5) The levels of HCV core and HCV RNA present were measured in each of the HCV-infected cell lines produced and the culture medium collected therefrom. Specifically, measurement of HCV RNA was performed by requesting a specialized inspection agency (Biogeno Korea Co., Ltd., Korea) that utilizes the Roche's COBAS TaqMan system. Here, as a control, a group treated with only HCV without a bile acid derivative was used.
In assay [6] the test system is MDA-MB-231 cell line. The assay can be described thus: HBV infection of MDA-MB-231 cell line with tCDCA-mixed HBV. The format is cell-based, human. As to conditions: HBV mixed with 100 μmol/L tCDCA. The method, then: as §1
Assay [7] concerns LC540 cell line. The assay can be described thus: HBV infection of LC540 cell line with tCDCA-mixed HBV. The format is cell-based, rat. The conditions noted are these: HBV mixed with 100 μmol/L tCDCA. As for the experimental part:
as §1

The test system of assay [8] is EL4 cell line. The assay can be described thus: HBV infection of EL4 cell line with tCDCA-mixed HBV. The format is cell-based, mouse. As to conditions: HBV mixed with 100 μmol/L tCDCA. The method, then: as §1
The test system of assay [9] is A498 cell line. The assay can be described thus: HBV infection of A498 cell line with tCDCA-mixed HBV. The format is cell-based, human. As to conditions: HBV mixed with 100 μmol/L tCDCA. The method, then:
as §1

Assay [10] deals with HeLa cell line. As to the kind of experiment: HBV infection of HeLa cell line with tCDCA-mixed HBV. It counts as cell-based, human. The conditions noted are these: HBV mixed with 100 μmol/L tCDCA. As for the experimental part: as §1
The test system of assay [11] is Huh-7 cell line. As to the kind of experiment: HBV infection of Huh-7 cell line with tCDCA-mixed HBV. The format is cell-based, human. As to conditions: HBV mixed with 100 μmol/L tCDCA. The method, then:
as §1

Assay [12] relates to Jurkat cell line. As to the kind of experiment: HCV infection of Jurkat cell line with tCDCA-mixed HCV. The format is cell-based, human.
Procedure: as §5
Assay [13] relates to Hepa1c1c7 cell line. As to the kind of experiment: HBV infection of Hepa1c1c7 cell line with tCDCA-mixed HBV. The format is cell-based, mouse. The conditions noted are these: HBV mixed with 100 μmol/L tCDCA. As for the experimental part:
as §1

Assay [14] has as its system LC540 cell line. As to the kind of experiment: HCV infection of LC540 cell line with tCDCA-mixed HCV. It counts as cell-based, rat.
Procedure: as §5
The test system of assay [15] is HepG2 cell line. The assay can be described thus: HBV infection of HepG2 cell line with tCDCA-mixed HBV. The format is cell-based, human. The conditions noted are these: HBV mixed with 100 μmol/L tCDCA. As for the experimental part: as §1
In assay [16] the test system is EL4 cell line. The assay can be described thus: HCV infection of EL4 cell line with tCDCA-mixed HCV. The format is cell-based, mouse.
Procedure: as §5
Assay [17] has as its system MDA-MB-231 cell line. The assay can be described thus: HCV infection of MDA-MB-231 cell line with tCDCA-mixed HCV. It counts as cell-based, human.
For assay [18], the system named is Jurkat cell line. The assay can be described thus: HBV infection of Jurkat cell line with tCDCA-mixed HBV. The format is cell-based, human. The conditions noted are these: HBV mixed with 100 μmol/L tCDCA. As for the experimental part:
as §1

Assay [19] deals with HepG2 cell line. As to the kind of experiment: HCV infection of HepG2 cell line with tCDCA-mixed HCV. The format is cell-based, human.
Assay [20] relates to H4-II-E cell line. The conditions noted are these: HCV mixed with tCA. The source says:
(§2) For production of enveloped virus-infected cell line models, HBV (1×10^6 copies/ml/well of HBV) isolated in Example 1 above was mixed with 100 μmol/L of taurochenodeoxycholic acid (hereinafter referred to as ‘tCDCA’), and HCV (1×10^6 IU/ml/well of HCV) isolated in Example 1 above was mixed with tCDCA or taurocholic acid (hereinafter referred to as ‘tCA’). Here, tCA was mixed with HCV and used to infect mouse hepatocytes; and tCDCA was used in all other cases.
(§3) A cell line (HepG2, Huh-7, A549, A-498, MDA-MB-231, Jurkat, HeLa, Hepa1c1c7, EL4, H4-II-E, LA-4, LC540, or RAG cell line) at 5×10^6 cells/ml was dispensed into each well of a 6-well plate, and culture was performed for 24 hours. Then, the tCDCA or tCA solution mixed with HBV or HCV was added thereto, and culture was further performed for 24 hours. Here, as a control, a group, to which only HBV or HCV was added without the tCDCA or tCA solution, was used. […] Finally, the cell culture medium was treated with 100 μmol/L of tCDCA or tCA, and culture was further performed for 3 days, thereby producing a virus-infected cell line model (hereinafter referred to as “infected cell line”).
(§4) The levels of HCV core and HCV RNA present were measured in each of the HCV-infected cell lines produced and the culture medium collected therefrom. […]

The subject of assay [21] is Hepa1c1c7 cell line. As to conditions: HCV mixed with tCA (mouse hepatocytes).
Excerpt: as §2, §3, §4

On to `C[C@H](CCC(=O)NCCS(=O)(=O)O)[C@H]1CC[C@H]2[C@@H]3[C@H](O)C[C@@H]4C[C@H](O)CC[C@]4(C)[C@H]3CC[C@]12C` [tCDCA, taurochenodeoxycholic acid], for which the “HCV RNA (IU/ml)” value in [1] worked out at 4550 IU/ml; in [4], 610 IU/ml; in assay [5], 628.066 IU/ml; in assay [12], 3326.667 IU/ml; in assay [14], 21.7 IU/ml; in assay [16], 1669 IU/ml. The “HCV RNA (IU/ml)” value is listed as 605 IU/ml in assay [17] and 85.233 IU/ml in assay [19]. Also, the “HBV DNA (copies/ml)” value in assay [2] is 11,700 (622, 000) copies/ml; in assay [3] it was 73,000 ± 51,929 copies/ml; in [6] it was 116 copies/ml; in assay [7] it was 149,000 ± 29,866 copies/ml; in assay [8] it was 673,000 ± 60,053 copies/ml; in assay [9], 73,500 ± 23,292 copies/ml. For the same compound, the “HBV DNA (copies/ml)” value in assay [10] is given as 359 copies/ml; in assay [11], 89,000 ± 1,836 copies/ml; in assay [13], 7,036,667 copies/ml; in assay [15] it was 3,590,000 ± 1,010,000 copies/ml; in [18] it was 868,000 ± 88,963 copies/ml. Besides, the “HBsAg (Index)” value in assay [2] is recorded as 21 (744) Index; in assay [3], 22.73 ± 4.39 Index; in assay [6], 169 Index; in [7], 3.06 ± 0.44 Index; in assay [8], 192.7 ± 30.60 Index; in [9] it was 5.12 ± 0.19 Index. For the same compound, the “HBsAg (Index)” value in assay [10] is on record as 61.35 Index; in assay [11], 26.02 ± 5.97 Index; in assay [13], 508.26 ± 107.6 Index; in assay [15], 474.70 ± 176.30 Index; in [18], 1081 ± 329 Index. Also, the “HBcAg (Index)” value in [2] (FACS) was determined as 76.6%; in [3] (FACS) it was 32.6%; in [6] (FACS), 87.4%; in assay [8] (FACS) it was 66.9%; in [9] (FACS), 67.1%; in assay [10] (FACS), 89.6%. Further, the “HBcAg (Index)” value in [11] (FACS) is 69.8%; in assay [13] (FACS), 77.1%; in assay [15] (FACS), 61.6%; in assay [18] (FACS) it was 37.5%.

With `C[C@H](CCC(=O)NCCS(=O)(=O)O)[C@H]1CC[C@H]2[C@@H]3[C@H](O)C[C@@H]4C[C@H](O)CC[C@]4(C)[C@H]3C[C@H](O)[C@]12C` [tCA, taurocholic acid], the entries for the “HCV RNA (IU/ml)” value in assay [20] and in assay [21] were 197.33 IU/ml and 3430 IU/ml, respectively.
